Patent US20240173332A1, “BENZO[…] TREATING OR PREVENTING RESPIRATORY SYNCYTIAL VIRUS INFECTION” (Pfizer Inc., priority 2021, published 2024)
Where two headings read alike, the source gives them in different places.

Key:
RSV A2 = assay: RSV plaque reduction assay in Hep-G2 cells; format: cell-based, respiratory syncytial virus (RSV); conditions: human respiratory syncytial virus, HepG2, 48 h, Hep-G2 cells, RSV A2, 2 days; mean of at least two experiments; read-out: RSV A2 Plaque EC50
Procedure: Compounds were subjected to RSV plaque reduction assays according to the following protocol. Plaque EC50 and cell toxicity CC50 values are a mean of at least two experiments and figures are rounded to whole units.
Hep-G2 cells (ECACC, 85011430) were passaged in flasks and seeded in 24-well plates in DMEM containing antibiotics and supplemented with 10% FBS. During inoculation and subsequent incubation, cells were cultured in DMEM containing 2% FBS. 100 plaque forming unit/well of RSV (RSV A2 ECACC, 0709161v) was mixed with eight serial dilutions of compound. Subsequently, 100 μL of the virus/compound mixtures was added to confluent Hep-G2 cell monolayers. The cells and virus/compound mixtures were incubated at 37° C. in a humidified 5% CO2 incubator for 2 h prior to removal of the inoculum and addition of 1 mL of overlay (DMEM containing 2% FBS and 0.8% CMC) containing compound dilutions. The cells and were incubated at 37° C. in a humidified 5% CO2 incubator for 2 days.
Cells were washed with PBS before adding 75/25% v/v EtOH/MeOH, for 3 min. Fixative was removed and plates were washed with PBS. A pre-titrated amount of the primary antibody was added in 200 μL PBS/2% milk powder, and plates incubated for 90 min at 37° C. The plates were washed 3 times with PBS/0.05% Tween20 before addition of rabbit anti-goat horse radish peroxidase in 200 μL PBS/2% milk powder, and incubated for 1 h at 37° C. Following three wash steps with PBS/0.05% Tween20, 200 μL ready-to-use TrueBlue was added and plates were incubated at rt for 10-15 min before washing with water. After removal of water, plates were air-dried in the dark. Plates were scanned and analysed using the Immunospot S6 Macro analyser, which is equipped with BioSpot analysis software for counting immunostained plaques (virospots). Plaque counts were used to calculate % infection relative to the mean of the plaque count in the virus control wells for RSV. The EC50 value was calculated as 50% reduction in signal, respectively, by interpolation of inhibition curves fitted with a 4-parameter nonlinear regression with a variable slope in Dotmatics. Plaque EC50 and cell toxicity CC50 values are a mean of at least two experiments and figures are rounded to whole units.

Cell cytotoxicity CC50 = format: cell-based; conditions: human, Hep-G2 cells; mean of at least two experiments unless (n = 1)
[1] = Liver microsomal stability, rat; format: in vitro ADME; conditions: pooled liver microsomes, pH 7.4, 0.5 mg/mL protein, 1 μM compound, NADPH, read-out: Liver Microsomal Stability t1/2
Procedure: (§1) Compounds were subjected to the following assays to investigate liver microsomal stability and hepatocyte stability.
(§2) Pooled liver microsomes were purchased from a reputable commercial supplier and stored at −80° C. prior to use. Microsomes (final protein concentration 0.5 mg/mL), 0.1 M phosphate buffer pH 7.4 and test compound (final substrate concentration 1 μM; final DMSO concentration 0.25%) were pre-incubated at 37° C. prior to the addition of NADPH (final concentration 1 mM) to initiate the reaction. The final incubation volume was 50 μL. A control incubation was included for each compound tested where 0.1 M phosphate buffer pH 7.4 was added instead of NADPH (minus NADPH). Two control compounds were included with each species. All incubations were performed singularly for each test compound. Each compound was incubated for 0, 5, 15, 30 and 45 min. The control (minus NADPH) was incubated for 45 min only. The reactions were stopped by transferring incubate into acetonitrile at the appropriate time points, in a 1:3 ratio. The termination plates are centrifuged at 3,000 rpm for 20 min at 4° C. to precipitate the protein. Following protein precipitation, the sample supernatants were combined in cassettes of up to 4 compounds, internal standard added, and samples analysed by LC-MS/MS. From a plot of In peak area ratio (compound peak area/internal standard peak area) against time, the gradient of the line was determined. Subsequently, half-life (t1/2) and intrinsic clearance (CLint) were calculated.

[2] = Liver microsomal stability, dog; format: in vitro ADME; conditions: pooled liver microsomes, pH 7.4, 0.5 mg/mL protein, 1 μM compound, NADPH, read-out: Liver Microsomal Stability t1/2
Procedure: as §1, §2

[3] = Liver microsomal stability, human; format: in vitro ADME; conditions: pooled liver microsomes, pH 7.4, 0.5 mg/mL protein, 1 μM compound, NADPH, read-out: Liver Microsomal Stability t1/2
Procedure: as §1, §2

[4] = Hepatocyte stability, rat; format: in vitro ADME; conditions: cryopreserved pooled hepatocytes, 3 μM compound, 60 min, read-out: Liver Hepatocyte Stability t1/2
Procedure: as §1
(§3) Cryopreserved pooled hepatocytes were purchased from a reputable commercial supplier and stored in liquid nitrogen prior to use. Williams E media supplemented with 2 mM L-glutamine and 25 mM HEPES and test compound (final substrate concentration 3 μM; final DMSO concentration 0.25%) are pre-incubated at 37° C. prior to the addition of a suspension of cryopreserved hepatocytes (final cell density 0.5 ×10^6 viable cells/mL in Williams E media supplemented with 2 mM L-glutamine and 25 mM HEPES) to initiate the reaction. The final incubation volume is 500 μL. Two control compounds were included with each species, alongside appropriate vehicle control. The reactions were stopped by transferring 50 μL of incubate to 100 μL acetonitrile containing internal standard at the appropriate time points. Samples were removed at 6 time points (0, 5, 15, 30, 45 and 60 min) over the course of a 60 min experiment. The termination plates were centrifuged at 2500 rpm at 4° C. for 30 min to precipitate the protein.
(§4) Following protein precipitation, the sample supernatants were combined in cassettes of up to 4 compounds and analysed using generic LC-MS/MS conditions. From a plot of In peak area ratio (compound peak area/internal standard peak area) against time, the gradient of the line was determined. Subsequently, half-life (t1/2) and intrinsic clearance (CLint) were calculated.

[5] = Hepatocyte stability, dog; format: in vitro ADME; conditions: cryopreserved pooled hepatocytes, 3 μM compound, 60 min, read-out: Liver Hepatocyte Stability t1/2
Procedure: as §1, §3, §4

[6] = Hepatocyte stability, human; format: in vitro ADME; conditions: cryopreserved pooled hepatocytes, 3 μM compound, 60 min, read-out: Liver Hepatocyte Stability t1/2
Procedure: as §1, §3, §4

[7] = In vivo pharmacokinetics in rats (IV and PO); set-up: species or system Male rats [Sprague Dawley (SD)]; conditions: male SD rat; for half-life / Vd / clearance / Cmax / AUC(0-t): Sprague Dawley, plasma; for Vd / clearance / Cmax: study IV 1 mg/kg; for Cmax: route not given; for AUC(0-t): read-out: PO AUClast; for F: PO 10 mg/kg vs IV 1 mg/kg
Procedure: The pharmacokinetics of compounds were studied in vivo in rats at doses of 1 mg/kg (IV) and 10 mg/kg (PO).
Male rats [Sprague Dawley (SD)] surgically prepared with a jugular vein cannula were treated with experimental compounds via intravenous administration (IV; n=3; 1 mg/kg) or oral administration (PO; n=3; 10 mg/kg). Compounds were formulated as a solution in 40:60 dimethylacetamide:saline (IV administration) and a solution of 10% DMSO, 10% cremaphor in water (80%) (PO administration). […] Serial blood samples were collected via the cannula at 0.02, 0.08, 0.25, 0.5, 1, 2, 4, 6, 8 and 24 h post IV dosing of compound, and at 0.08, 0.25, 0.5, 1, 2, 4, 6, 8 and 24 h post oral dosing of compound, and plasma was prepared by centrifugation and stored immediately at −80° C. Samples were subsequently thawed, prepared for analysis by protein precipitation with acetonitrile, and analysed by tandem LCMS using electrospray ionisation using a matrix-matched calibration curve. PK parameters were calculated from the resulting data.

RSV = conditions: Antimicrobial Agents and Chemotherapy, Sept. 2007, 3346-3353; cited from earlier work
[8] = IV 1 mg/kg, read-out: IV t1/2 (converted)
[9] = PO 10 mg/kg, read-out: PO t1/2 (converted)

O=C(N[C@H]1N=C(c2ccccc2)c2cccc(F)c2NC1=O)c1c(-c2ccc(CO)cc2F)nn2cccnc12 [Example 1, 2-[2-Fluoro-4-(hydroxymethyl)phenyl]-N-[(35)-9-fluoro-2-oxo-5-phenyl-1,3-dihydro-1,4-benzodiazepin-3-yl]pyrazolo[1,5-a]pyrimidine-3-carboxamide]
EC50 (RSV A2): 18 nM
CC50 (Cell cytotoxicity CC50): > 25000 nM
half-life at 1 μM [1]: 0.69 h
half-life at 1 μM [2]: 10.6 h
half-life at 1 μM [3]: 5.48 h
half-life at 3 μM [4]: 1.38 h
half-life at 3 μM [5]: 2.62 h
half-life at 3 μM [6]: 5.55 h
half-life [7, 8]: 1.5 h
half-life [7, 9]: 3.1 h
Vd ([7]; PO 10 mg/kg): 0.75 L/kg
clearance ([7]; PO 10 mg/kg): 11.5 mL/min/kg
Cmax ([7]; PO 10 mg/kg): 788 ng/mL
AUC(0-t) ([7]; PO 10 mg/kg): 3880 ng·h/mL
F [7]: 25.6%

CC(C)n1cc(-c2nn3cccnc3c2C(=O)N[C@H]2N=C(c3ccccc3)c3cccc(F)c3NC2=O)cn1 [Example 4, N-[(3S)-9-fluoro-2-oxo-5-phenyl-1,3-dihydro-1,4-benzodiazepin-3-yl]-2-(1-propan-2-ylpyrazol-4-yl)pyrazolo[1,5-a]pyrimidine-3-carboxamide]
EC50 (RSV A2): 37 nM
CC50 (Cell cytotoxicity CC50): > 25000 nM
half-life at 1 μM [1]: 2.63 h
half-life at 1 μM [2]: 2.62 h
half-life at 1 μM [3]: 6.58 h
half-life at 3 μM [4]: 2.17 h
half-life at 3 μM [5]: 1.4 h
half-life at 3 μM [6]: 3.78 h
half-life [7, 8]: 4.4 h
half-life [7, 9]: 3.7 h
Vd ([7]; PO 10 mg/kg): 0.49 L/kg
clearance ([7]; PO 10 mg/kg): 1.9 mL/min/kg
Cmax ([7]; PO 10 mg/kg): 4790 ng/mL
AUC(0-t) ([7]; PO 10 mg/kg): 57100 ng·h/mL
F [7]: 54.6%

O=C(N[C@H]1N=C(c2ccccc2)c2cccc(F)c2NC1=O)c1c(-c2cccc(CO)c2F)nn2cccnc12 [Example 18, 2-[2-Fluoro-3-(hydroxymethyl)phenyl]-N-[(3S)-9-fluoro-2-oxo-5-phenyl-1,3-dihydro-1,4-benzodiazepin-3-yl]pyrazolo[1,5-a]pyrimidine-3-carboxamide]
EC50 (RSV A2): 44 nM
CC50 (Cell cytotoxicity CC50): > 25000 nM
half-life at 1 μM [1]: 0.983 h
half-life at 1 μM [2]: 6.5 h
half-life at 1 μM [3]: 8.83 h
half-life at 3 μM [4]: 1.57 h
half-life at 3 μM [5]: > 3 h
half-life at 3 μM [6]: > 3 h

O=C(Nc1ccccc1F)N[C@H]1N=C(c2ccccc2)c2ccccc2NC1=O [RSV604]
anti-RSV activity (RSV): sub-micromolar

CS(=O)(=O)c1ccc(-c2nn3cccnc3c2C(=O)N[C@H]2N=C(c3ccccc3)c3cccc(F)c3NC2=O)c(F)c1 [Example 7, 2-(2-Fluoro-4-methylsulfonylphenyl)-N-[(3S)-9-fluoro-2-oxo-5-phenyl-1,3-dihydro-1,4-benzodiazepin-3-yl]pyrazolo[1,5-a]pyrimidine-3-carboxamide]
EC50 (RSV A2): 9 nM
CC50 (Cell cytotoxicity CC50): > 25000 nM
half-life at 3 μM [4]: 85.7 h
half-life at 3 μM [5]: 0.95 h
half-life at 3 μM [6]: 6.28 h
half-life [7, 8]: 1.6 h
half-life [7, 9]: 2.5 h
Vd ([7]; PO 10 mg/kg): 1.4 L/kg
clearance ([7]; PO 10 mg/kg): 13.1 mL/min/kg
Cmax ([7]; PO 10 mg/kg): 2340 ng/mL
AUC(0-t) ([7]; PO 10 mg/kg): 24800 ng·h/mL
F [7]: 188%
